What was measured:
aged C57BL6/J mice [1] = assay: 2-PMPA treatment of aged C57BL6/J mice: muscle function, muscle mass, frailty, survival, plasma cytokines; format: in vivo
Procedure: To determine whether 2-PMPA treatment could delay muscle function loss in aged animals, 15-month old C57BL6/J mice were treated with 100 mg/kg of 2-PMPA IP daily for 5 months and monthly body weight, grip strength, compound muscle action potential (CMAP), open field behavior, end stage muscle weights and survival were monitored.
After 5 months of treatment, 2-PMPA treated animals were moving more in the open field apparatus.

aged C57BL6/J mice [2] = assay: as above; format: in vivo; settings: 15-month old WT mice, 100 mg/kg, 5 days per week for 5 months, vs vehicle
[3] = 20 weeks of 2-PMPA treatment, plasma

`O=C(O)CCC(CP(=O)(O)O)C(=O)O` (stereo not shown) [Compound 2-PMPA, 2-(phosphonomethyl) pentanedioic acid] was tested, and the “calf muscle area measured by MRI” value (aged C57BL6/J mice [1]; 2 months on treatment, vs vehicle treated mice) was “significantly greater”, the gastrocnemius muscle weights (aged C57BL6/J mice [1]; 5 months of treatment, vs vehicle treated mice) was “significantly increased” and the “survival after 5 months of treatment” value (aged C57BL6/J mice [1]; 15-month old C57BL6/J mice, 100 mg/kg 2-PMPA IP, 5 months, vehicle 8%) was 58%. The “median survival exceeding the vehicle mice” value (aged C57BL6/J mice [1]; 15-month old C57BL6/J mice, 100 mg/kg 2-PMPA, vs vehicle) was 106 days, the “plasma IFN-gamma” value (aged C57BL6/J mice [1]; [3]) was “reduced” and the “plasma IL-1beta” value (aged C57BL6/J mice [1]; [3]) was “reduced”. For the same compound, the “plasma TNF-alpha” value (aged C57BL6/J mice [1]; [3]) was “reduced”, the frailty index scores (aged C57BL6/J mice [1]; after 5 months of treatment, vs vehicle-treated mice) was “significantly reduced” and the body weight loss (aged C57BL6/J mice [1]; after 5 months on 2-PMPA therapy, vs vehicle treated mice) was “significant delay”. The “gastrocnemius muscle fiber cross sectional area (CSA)” value (aged C57BL6/J mice [1]; old mice treated with 2-PMPA vs vehicle treated old mice) was “significantly larger”, the “compound muscle action potential (CMAP) in the foot muscles” value (aged C57BL6/J mice [2]) was “significantly improved” and the grip strength (aged C57BL6/J mice [2]) was “significantly improved”. For the same compound, the “movement in open field” value (aged C57BL6/J mice [2]) was “significantly improved”.
